According to paper PMC3598812, “Evaluation of Anti-Hyperalgesic and Analgesic Effects of Two Benzodiazepines in Human Experimental Pain: A Randomized Placebo-Controlled Study” (PLoS ONE, 2013):
Entries after “also recorded” stand apart in the source; their conditions may differ. Like-named read-outs stand apart in the source and are kept apart here.

How the values were obtained:
[1] = trial protocol, cited from earlier work
healthy male volunteers [2] = assay: Psychomotor performance, digit symbol substitution test (DSST); conditions: for DSST score compared with tolterodine at 120 min: main analysis, pairwise comparison within the time-points; for DSST-score: single oral dose (clobazam 20 mg, clonazepam 1 mg, tolterodine 1 mg), mean (SD)
Protocol: The psychomotor performance was assessed by the digit symbol substitution test (DSST), a subscale of the Wechsler Adult Intelligence Scale. The DSST evaluates the ability to concentrate and modifications in processing information [23]. It is a two-minute paper-and-pencil test. The subject was asked to replace digits with corresponding symbols according to a code given on the same sheet of paper. The score consists in the total number and the correct number of symbols drawn.
Pressure pain, conditioned pain modulation (CPM), intramuscular electrical pain tests, cuff algometry and DSST were performed 120 min after drug intake.
After 15 min, the whole battery of tests was performed.

healthy male volunteers [3] = assay: Intramuscular repeated (5 stimuli) electrical stimulation pain threshold; assay type: in vivo, human; conditions: for Change in pain threshold after 5 intramuscular electrical stimuli between baseline and 120 minutes: main analysis, pairwise multiple comparison; for Change in pain detection threshold after 5 intramuscular electrical stimuli from baseline to peak value: peak value analysis, pairwise comparisons within each drug
Excerpt: The stimulus burst used for single stimulus was repeated 5 times at 2 Hz, at constant intensity. The current intensity of the 5 stimuli was increased from 1 mA in steps of 0.5 mA until the subjects felt pain during the last 2–3 of the 5 stimuli (indicating temporal summation).
A needle was placed in the tibialis anterior muscle, 14 cm distal from the caudal end of the patella and 20 mm in depth. The same single and repeated stimulation patterns and the same procedure described for cutaneous stimulation were used.

[4] = Pharmacokinetics of clobazam in plasma (LC-MS/MS); assay type: in vivo; conditions: human, po, 20 mg, clobazam 20 mg oral, mean (SD)
healthy male volunteers [5] = assay: Cuff algometry (tourniquet cuff on the leg, VAS-time AUC); assay type: in vivo, human; parameters: AUC of VAS during cuff algometry: unit not given beside the values; conditions: for AUC of VAS during cuff algometry: mean (SD); for Cuff algometry, overview of peak value or subgroup analysis: overview table, compared to tolterodine
Excerpt: A tourniquet cuff was applied to the middle of the leg, at the level of the heads of the gastrocnemius and soleus muscle. The cuff was applied at the side contralateral to the side of electrical stimulation in order not to interfere with the positioning of the intramuscular electrodes. During stimulation, the volunteer rated the pain intensity on an electronic VAS scale. The cuff was inflated with compressed air until VAS 6 was reached. The maximum allowed inflating pressure was 200 kPa. The pressure was maintained for 10 min or until the subjects rated the pain as intolerable. The area under the curve VAS-time was computed. For those subjects who felt intolerable pain before 10 min, the time when the cuff was deflated was recorded and VAS 10 was extrapolated until 10 min. Additionally, the maximal VAS during inflation was recorded.

[6] = 120 min after drug administration
[7] = baseline before medication, per drug session, mean (SD)
[8] = single oral dose (clobazam 20 mg, clonazepam 1 mg, tolterodine 1 mg), 120 min after medication, mean (SD)
[9] = single oral dose (clobazam 20 mg, clonazepam 1 mg, tolterodine 1 mg), after flumazenil 0.2 mg iv, mean (SD)
[10] = subgroup (n = 8) with peak plasma level below 180 minutes and at least 200 µg/ml
[11] = baseline before medication, per drug session
[12] = single oral dose (clobazam 20 mg, clonazepam 1 mg, tolterodine 1 mg), 120 min after medication
[13] = single oral dose (clobazam 20 mg, clonazepam 1 mg, tolterodine 1 mg), after flumazenil 0.2 mg iv
[14] = subgroup analysis (n = 8), pairwise multiple comparisons

SMILES	DSST score compared with tolterodine at 120 min (healthy male volunteers [2])	DSST-score (healthy male volunteers [2]; [6])	DSST-score (healthy male volunteers [2]; after flumazenil 0.2 mg iv)	Pain threshold after 5 intramuscular electrical stimuli (healthy male volunteers [3]; [7])	Change in pain threshold after 5 intramuscular electrical stimuli between baseline and 120 minutes (healthy male volunteers [3])	Change in pain detection threshold after 5 intramuscular electrical stimuli from baseline to peak value (healthy male volunteers [3])	Pain threshold after 5 intramuscular electrical stimuli (healthy male volunteers [3]; [8])	Pain threshold after 5 intramuscular electrical stimuli (healthy male volunteers [3]; [9])	AUC of VAS during cuff algometry (healthy male volunteers [5]; [11])	Cuff algometry, overview of peak value or subgroup analysis (healthy male volunteers [5])	AUC of VAS during cuff algometry (healthy male volunteers [5]; [12])	AUC of VAS during cuff algometry (healthy male volunteers [5]; [13])	other results
CN1C(=O)CC(=O)N(c2ccccc2)c2cc(Cl)ccc21 [Clobazam]	not	74.9 (14.7)	81.1 (12.1)	1.4 (1.1) mA	statistically significant increase; also recorded: Significant increase in pain thresholds	significant increase; also recorded: Consistent for an increase in pain thresholds after clobazam and clonazepam	2.1 (2.2) mA	2.2 (2.0) mA	3446 (539)	Time factor significant, favouring clobazam and clonazepam compared to tolterodine	3001 (831)	2932 (566)	Time to maximum plasma concentration ([1]; after 10 mg in healthy volunteers): 1.3 ± 0.2 h; Time to maximum plasma concentration ([1]; after 20 mg in healthy volunteers): 1.6 h; Time to maximum plasma concentration ([1]; general statement): about 2 h; Bioavailability ([1]; drug background): 90%; Half life (t1/2) ([1]; drug background): circa 20 h; AUC ([4]; all volunteers (n = 16)): 5460 ng·h/mL; Cmax ([4]; all volunteers (n = 16)): 370 ng/mL; Tmax ([4]; all volunteers (n = 16)): 2.28 h; half-life ([4]; all volunteers (n = 16)): 19 h; AUC [4, 10]: 6160 ng·h/mL; Cmax [4, 10]: 470 ng/mL; Tmax [4, 10]: 1.64 h; half-life [4, 10]: 17.5 h
O=C1CN=C(c2ccccc2Cl)c2cc([N+](=O)[O-])ccc2N1 [Clonazepam]	significantly associated to a lower score	69.3 (15.8)	79.1 (14.5)	1.6 (1.1) mA	statistically significant increase; also recorded: Significant increase in pain thresholds	significant increase; also recorded: Consistent for an increase in pain thresholds after clobazam and clonazepam	2.3 (1.6) mA	2.9 (2.3) mA	3420 (689)	Time factor significant, favouring clobazam and clonazepam compared to tolterodine	3175 (644)	3225 (671)	Psychomotor performance (DSST) at 120 minutes compared with the other two drugs (healthy male volunteers [2]; subgroup analysis (n = 8), pairwise multiple comparison): lower psychomotor performance; Change of DSST score after flumazenil injection (healthy male volunteers [2]; subgroup analysis (n = 8), within drug): significantly increased; Pain threshold after 5 intramuscular electrical stimuli (healthy male volunteers [3]; subgroup analysis (n = 8), 120 minutes, mean): 2.93 mA; Pain threshold after 5 intramuscular electrical stimuli (healthy male volunteers [3]; subgroup analysis (n = 8), after flumazenil administration, mean): 3.58 mA; Pain threshold after 5 intramuscular electrical stimuli (healthy male volunteers [3]; subgroup analysis (n = 8), baseline, mean): 1.69 mA; AUC of VAS during cuff algometry compared with tolterodine at 120 min (healthy male volunteers [5]; [14]): significantly lower; Change of AUC of VAS during cuff algometry from baseline at 120 min and after flumazenil (healthy male volunteers [5]; [14]): significantly decreased
Cc1ccc(O)c([C@H](CCN(C(C)C)C(C)C)c2ccccc2)c1 [Tolterodine]	–	–	–	1.6 (1.2) mA	not	not	1.9 (1.2) mA	2.2 (1.5) mA	3348 (743)	–	2686 (1155)	2918 (1021)	Oral bioavailability ([1]; ref Micromedex 2009): 77%; Change in pain threshold after 5 intramuscular electrical stimuli between baseline and 120 minutes (healthy male volunteers [3]; listed as tolterodine): no statistically significant change
